# Results published in ChEMBL document CHEMBL1124165, “1-(2,3-Anhydro-beta-D-lyxofuranosyl)cytosine derivatives as potential inhibitors of the human immunodeficiency virus” (J Med Chem, 1988).
# Species on record: Homo sapiens
# Assay: Tested in vitro for concentration with significant protective effect on CD4+ cells exposed to HIV
# Type: functional
# Details: not given
row,SMILES,Concentration [µM]
1,Nc1ccn([C@@H]2O[C@H](CO)[C@H]3OC23)c(=O)n1 (some centres undefined),5

# Test system: ATH-8 cell line
# Assay: Tested in vitro for concentration with significant protective effect on ATH8 cells exposed to HIV
# Type: functional, cell-based
# Details: Homo sapiens
row,SMILES,Concentration [µM]
1,Nc1ccn([C@@H]2O[C@H](CO)[C@H]3OC23)c(=O)n1 (some centres undefined),5

# Test system: ATH-8 cell line
# Assay: Tested in vitro for concentration with significant protective effect on ATH8 cells exposed to HIV; No significant effect at concentrations 100 uM
# Type: functional, cell-based
# Details: Homo sapiens
row,SMILES,Concentration
1,[N-]=[N+]=N[C@@H]1C(O)[C@H](n2ccc(=O)[nH]c2=O)O[C@@H]1CO (some centres undefined),No significant effect at concentrations 100 uM
2,Cc1cn([C@@H]2O[C@H](CO)[C@H]3OC23)c(=O)[nH]c1=O (some centres undefined),No significant effect at concentrations 100 uM
3,CNc1ccn([C@@H]2O[C@H](CO)[C@H]3OC23)c(=O)n1 (some centres undefined),No significant effect at concentrations 100 uM
4,[N-]=[N+]=N[C@@H]1C(O)[C@H](n2ccc(N)nc2=O)O[C@@H]1CO (some centres undefined),No significant effect at concentrations 100 uM
5,Cc1cn([C@@H]2O[C@H](CO)C[C@@H]2O)c(=O)[nH]c1=O,No significant effect at concentrations 100 uM
6,Cc1cn([C@@H]2O[C@H](CO)[C@H](N=[N+]=[N-])C2O)c(=O)[nH]c1=O (some centres undefined),No significant effect at concentrations 100 uM
7,C[C@H]1[C@H](O)[C@H](n2ccc(=O)[nH]c2=O)O[C@@H]1CO,No significant effect at concentrations 100 uM
8,COc1ccn([C@@H]2O[C@H](CO)[C@H]3OC23)c(=O)n1 (some centres undefined),No significant effect at concentrations 100 uM
9,O=c1nc(NO)ccn1[C@@H]1O[C@H](CO)[C@H]2OC12 (some centres undefined),No significant effect at concentrations 100 uM
10,Nc1ccn([C@@H]2O[C@H](CO)C[C@@H]2O)c(=O)n1,No significant effect at concentrations 100 uM
11,O=c1[nH]c(=O)n([C@@H]2O[C@H](CO)[C@H]3OC23)cc1Br (some centres undefined),No significant effect at concentrations 100 uM
12,O=c1ccn([C@@H]2O[C@H](CO)[C@H]3OC23)c(=O)[nH]1 (some centres undefined),No significant effect at concentrations 100 uM
